Test results taken from patent US10039753B2, “Imidazo[4,5-c]quinoline and imidazo[4,5-c][1,5]naphthyridine derivatives as LRRK2 inhibitors” (Pfizer Inc., priority 2015, dated 2018).
Structures can show the parent of a compound that is named as a salt.

Columns and labels:
[1] = molecular target: T1, GST-tagged truncated LRRK2 (Homo sapiens, UniProt Q5S007); test: LRRK2 Assay, Format 1 (Lantha Screen), WT; format: biochemical
T1 construct: GST-tagged truncated LRRK2 from Invitrogen (Cat # PV4874); GST; purchased Invitrogen PV4874
T1 sequence (Q5S007 970-2527 limits assumed): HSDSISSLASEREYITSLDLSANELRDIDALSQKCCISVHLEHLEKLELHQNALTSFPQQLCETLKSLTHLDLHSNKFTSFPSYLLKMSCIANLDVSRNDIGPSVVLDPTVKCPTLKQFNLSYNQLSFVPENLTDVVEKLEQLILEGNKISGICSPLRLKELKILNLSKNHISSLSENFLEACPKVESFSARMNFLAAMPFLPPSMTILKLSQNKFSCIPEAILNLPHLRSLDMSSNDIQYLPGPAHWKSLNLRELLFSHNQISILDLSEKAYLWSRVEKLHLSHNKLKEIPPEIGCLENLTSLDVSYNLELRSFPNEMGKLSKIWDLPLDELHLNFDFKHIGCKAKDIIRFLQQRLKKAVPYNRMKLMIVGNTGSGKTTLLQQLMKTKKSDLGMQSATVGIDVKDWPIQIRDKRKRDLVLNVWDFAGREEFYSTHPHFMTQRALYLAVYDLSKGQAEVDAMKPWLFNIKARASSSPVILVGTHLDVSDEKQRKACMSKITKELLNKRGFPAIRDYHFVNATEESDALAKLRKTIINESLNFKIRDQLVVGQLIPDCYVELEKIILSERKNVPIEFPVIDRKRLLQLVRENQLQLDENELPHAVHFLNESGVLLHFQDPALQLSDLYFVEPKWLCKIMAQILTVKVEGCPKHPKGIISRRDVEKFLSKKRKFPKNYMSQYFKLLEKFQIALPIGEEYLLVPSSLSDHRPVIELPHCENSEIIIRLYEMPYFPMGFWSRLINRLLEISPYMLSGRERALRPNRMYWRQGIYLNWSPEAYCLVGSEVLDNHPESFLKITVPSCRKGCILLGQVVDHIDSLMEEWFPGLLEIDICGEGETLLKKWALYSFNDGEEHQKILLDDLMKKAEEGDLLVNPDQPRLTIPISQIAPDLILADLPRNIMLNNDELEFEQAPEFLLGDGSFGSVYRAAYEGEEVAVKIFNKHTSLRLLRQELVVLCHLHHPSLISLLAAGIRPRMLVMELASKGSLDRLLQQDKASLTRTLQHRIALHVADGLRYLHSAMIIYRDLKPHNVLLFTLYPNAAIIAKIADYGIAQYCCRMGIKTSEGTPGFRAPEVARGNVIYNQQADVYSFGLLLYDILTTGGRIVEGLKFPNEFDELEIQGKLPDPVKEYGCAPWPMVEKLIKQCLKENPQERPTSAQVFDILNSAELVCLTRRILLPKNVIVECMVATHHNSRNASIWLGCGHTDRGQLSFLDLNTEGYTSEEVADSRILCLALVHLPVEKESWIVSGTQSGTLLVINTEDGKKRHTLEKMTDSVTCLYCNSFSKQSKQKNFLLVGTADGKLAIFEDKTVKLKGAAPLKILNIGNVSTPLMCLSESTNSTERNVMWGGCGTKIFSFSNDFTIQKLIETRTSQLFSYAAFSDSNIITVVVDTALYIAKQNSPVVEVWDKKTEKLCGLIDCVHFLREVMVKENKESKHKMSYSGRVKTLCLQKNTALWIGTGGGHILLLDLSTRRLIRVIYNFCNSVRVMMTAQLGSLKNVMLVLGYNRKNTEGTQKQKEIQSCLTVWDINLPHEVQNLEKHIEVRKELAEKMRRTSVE
Method: LRRK2 kinase activity was measured using Lantha Screen technology from Invitrogen. GST-tagged truncated LRRK2 from Invitrogen (Cat # PV4874) was incubated with a fluorescein-labeled peptide substrate based upon ezrin/radixin/moesin (ERM), also known as LRRKtide (Invitrogen cat # PR8976A), in the presence of a dose response of compound. Upon completion, the assay was stopped and detected with a terbium labeled anti-phospho-ERM antibody (Invitrogen, cat # PR8975A). […] Aliquots (3.5 μL) of the 100% DMSO dose response were mixed with 46.5 μL water then 1 μL of this mixture was added to the 3 μL substrate mix in the 384-well plate. The kinase reaction was started with 3 μL of a working solution of LRRK2 enzyme at a concentration of 4 μg/mL. […] The reaction was allowed to progress at room temperature for two hours and then stopped with the addition of 7 μL of detection buffer (20 mM Tris pH 7.6, 0.01% NP-40, 0.02% NaN3, 6 mM EDTA with 2 nM terbium labeled anti-phospho-ERM).

mutant G2019S LRRK2 = mutant G2019S LRRK2 (Homo sapiens, UniProt Q5S007, G2019S); test: LRRK2 Assay, Format 1 (Lantha Screen), G2019S mutant
mutant G2019S LRRK2, sequence (Q5S007 970-2527 G2019S limits assumed): as the sequence (Q5S007 970-2527 limits assumed) above, with G1050S counted along it

[2] = Format 1, wild-type LRRK2, geometric mean of 2-4 determinations unless footnoted (a: ≥5 determinations; b: single determination; c: determined on trifluoroacetate salt)
[3] = 100 nM LRRKtide, 50 μM ATP, 1.7 μg/mL LRRK2 enzyme, two hours at room temperature

| IC50 [1, 2] | IC50 (mutant G2019S LRRK2) | IC50 [1, 3] | SMILES |
| --- | --- | --- | --- |
| 120 nM | 146 nM | – | c1ccc2c(c1)ncc1nc(Cn3cncn3)n(C3CCOCC3)c12 [Example 30, 1-(tetrahydro-2H-pyran-4-yl)-2-(1H-1,2,4-triazol-1-ylmethyl)-1H-imidazo[4,5-c]quinoline] |
| 5.8 nM | 4 nM | – | CC[C@@H]1C[C@H](n2c(Cc3ccon3)nc3cnc4ccc(C#N)cc4c32)CCO1 [Example 67, 1-[(2R,4R)-2-ethyltetrahydro-2H-pyran-4-yl]-2-(1,2-oxazol-3-ylmethyl)-1H-imidazo[4,5-c]quinoline-8-carbonitrile] |
| 12.3 nM | 10 nM | – | C[C@@H]1C[C@H](n2c(Cc3cscn3)nc3c(N)nc4ccc(Cl)cc4c32)CCO1 [Example 85, 8-chloro-1-[(2R,4R)-2-methyltetrahydro-2H-pyran-4-yl]-2-(1,3-thiazol-4-ylmethyl)-1H-imidazo[4,5-c]quinolin-4-amine, trifluoroacetate salt] |
| 17.6 nM | 16.2 nM | – | Fc1ccc2ncc3nc(Cc4cn5ncsc5n4)n(C4CCOCC4)c3c2c1 [Example 82, 8-fluoro-2-(imidazo[2,1-b][1,3,4]thiadiazol-6-ylmethyl)-1-(tetrahydro-2H-pyran-4-yl)-1H-imidazo[4,5-c]quinoline, trifluoroacetate salt] |
| 36 nM | 41.6 nM | – | Cc1nn2cc(Cc3nc4cnc5ccccc5c4n3C3CCOCC3)nc2s1 [Example 38, 2-[(2-methylimidazo[2,1-b][1,3,4]thiadiazol-6-yl)methyl]-1-(tetrahydro-2H-pyran-4-yl)-1H-imidazo[4,5-c]quinoline] |
| 10 nM | 5.2 nM | – | C[C@H]1C[C@@H](n2c(Cc3cscn3)nc3cnc4ccc(Br)cc4c32)CCO1 (racemic) [Example 56, 8-bromo-1-(cis-2-methyltetrahydro-2H-pyran-4-yl)-2-(1,3-thiazol-4-ylmethyl)-1H-imidazo[4,5-c]quinoline] |
| 4.5 nM | 2.4 nM | – | C[C@@H]1C[C@H](n2c(Cc3ccon3)nc3cnc4ccc(Br)cc4c32)CCO1 (single isomer, unassigned) [Example 12] |
| – | 632 nM | 853 nM | C[C@H]1C[C@@H](n2c(Cc3ccon3)nc3cnc4cccnc4c32)CCO1 [enantiomer of Example 68, 1-[(2 S,4S)-2-methyltetrahydro-2H-pyran-4-yl]-2-(1,2-oxazol-3-ylmethyl)-1H-imidazo[4,5-c][1,5]naphthyridine] |
| 156 nM | 170 nM | – | CC1(C)CC(n2c(Cc3cscn3)nc3cnc4ccccc4c32)CCO1 (stereo not drawn) [Example 72, 1-(2,2-dimethyltetrahydro-2H-pyran-4-yl)-2-(1,3-thiazol-4-ylmethyl)-1H-imidazo[4,5-c]quinoline, trifluoroacetate salt] |
| 74.6 nM | 62.5 nM | – | Fc1ccc2ncc3nc(Cc4cscn4)n(C4CCOCC4)c3c2c1 [Example 77, 8-fluoro-1-(tetrahydro-2H-pyran-4-yl)-2-(1,3-thiazol-4-ylmethyl)-1H-imidazo[4,5-c]quinoline, trifluoroacetate salt] |
| 77.7 nM | 66.5 nM | – | COc1ccc(Cc2nc3cnc4ccc(F)cc4c3n2C2CCOC(C)(C)C2)nc1 (stereo not drawn) [Example 70, 1-(2,2-dimethyltetrahydro-2H-pyran-4-yl)-8-fluoro-2-[(5-methoxypyridin-2-yl)methyl]-1H-imidazo[4,5-c]quinoline] |
| 125 nM | 132 nM | – | Cc1nc2cnc3ccc(Cl)cc3c2n1C1CCOCC1 [Example 17, 8-chloro-2-methyl-1-(tetrahydro-2H-pyran-4-yl)-1H-imidazo[4,5-c]quinoline] |
| 4.9 nM | 5.1 nM | – | Cc1cc(Cc2nc3cnc4ccc(C#N)cc4c3n2[C@@H]2CCO[C@H](C)C2)no1 [Example 3, 2-[(5-Methyl-1,2-oxazol-3-yl)methyl]-1-[(2R,4R)-2-methyltetrahydro-2H-pyran-4-yl]-1H-imidazo[4,5-c]quinoline-8-carbonitrile] |
| 81 nM | 55.5 nM | – | Cc1nc2cnc3ccc(C#N)cc3c2n1[C@H]1CCO[C@@H](C)C1 (racemic) [Example 19, 2-methyl-1-(cis-2-methyltetrahydro-2H-pyran-4-yl)-1H-imidazo[4,5-c]quinoline-8-carbonitrile] |
| 141 nM | 120 nM | – | CC(C)(O)c1cn(Cc2nc3cnc4ccccc4c3n2C2CCOCC2)nn1 [Example 40, 2-(1-{[1-(tetrahydro-2H-pyran-4-yl)-1H-imidazo[4,5-c]quinolin-2-yl]methyl}-1H-1,2,3-triazol-4-yl)propan-2-ol] |
| 195 nM | 174 nM | – | Cc1nc2cnc3ccc(C#N)cc3c2n1[C@H]1CC[C@@H](F)C1 [Example 20, 1-[(1S,3R)-3-fluorocyclopentyl]-2-methyl-1H-imidazo[4,5-c]quinoline-8-carbonitrile] |
| 153 nM | 157 nM | – | F[C@H]1CC[C@@H](n2c(Cc3nc4ccccc4o3)nc3cnc4ccccc4c32)C1 [Example 28, 2-(1,3-benzoxazol-2-ylmethyl)-1-[(1R,3S)-3-fluorocyclopentyl]-1H-imidazo[4,5-c]quinoline] |
| – | 241 nM | 687 nM | C[C@H]1C[C@@H](n2c(Cn3cncn3)nc3cnc4ccc(Cl)cc4c32)CCO1 [enantiomer of Example 65, 8-chloro-1-[(2S,4S)-2-methyltetrahydro-2H-pyran-4-yl]-2-(1H-1,2,4-triazol-1-ylmethyl)-1H-imidazo[4,5-c]quinoline] |
| – | 236 nM | 332 nM | C[C@H]1C[C@@H](n2c(Cc3ccon3)nc3cnc4ccc(F)cc4c32)CCO1 [enantiomer of Example 54, 8-fluoro-1-[(2S,4S)-2-methyltetrahydro-2H-pyran-4-yl]-2-(1,2-oxazol-3-ylmethyl)-1H-imidazo[4,5-c]quinoline] |
| 186 nM | 90.8 nM | – | FC1(F)CCCCC1n1c(Cc2ccon2)nc2cnc3ccccc3c21 (stereo not drawn) [Example 46, 1-(2,2-difluorocyclohexyl)-2-(1,2-oxazol-3-ylmethyl)-1H-imidazo[4,5-c]quinoline] |
| 61.1 nM | 52.9 nM | – | c1ccc2nn(Cc3nc4cnc5ccccc5c4n3C3CCOCC3)cc2c1 [Example 45, 2-(2H-indazol-2-ylmethyl)-1-(tetrahydro-2H-pyran-4-yl)-1H-imidazo[4,5-c]quinoline] |
| 111 nM | 139 nM | – | c1ccc2oc(Cc3nc4cnc5ccccc5c4n3C3CCOCC3)nc2c1 [Example 34, 2-(1,3-benzoxazol-2-ylmethyl)-1-(tetrahydro-2H-pyran-4-yl)-1H-imidazo[4,5-c]quinoline] |
| 124 nM | 93.5 nM | – | c1ccc2c(c1)ncc1nc(Cn3nnc4ccccc43)n(C3CCOCC3)c12 [Example 41, 2-(1H-benzotriazol-1-ylmethyl)-1-(tetrahydro-2H-pyran-4-yl)-1H-imidazo[4,5-c]quinoline] |
| – | 327 nM | 353 nM | Cc1cc(Cc2nc3cnc4ccc(Cl)cc4c3n2C2CCOC(CC#N)C2)no1 (single isomer, unassigned; ent-2) [enantiomer of Example 134, [cis-4-{8-chloro-2-[(5-methyl-1,2-oxazol-3-yl)methyl]-1H-imidazo[4,5-c]quinolin-1-yl}tetrahydro-2H-pyran-2-yl]acetonitrile, ENT-2] |
